Each structure is given as a SMILES string. The source made the active and inactive calls. No cut-off for these calls is given here.

What is called IC50 is the concentration at which inhibition is half-maximal.

For one assay, the system named is A-375. Briefly: Inhibition of cell colony formation in human A-375 cells at 5 uM cultured in 8% FBS and measured after 7 days in presence of LPS by crystal violet staining based analysis. Format: functional. The following applies: time 7.0 day.
In the case of `CCOc1cc(N2CCC(O)CC2)ccc1Nc1ncc2c(n1)N(C)c1ccccc1C(=O)N2C`, the inhibition result is “Active”.

The subject of another assay is HCT-116. Briefly: Inhibition of cell colony formation in human HCT-116 cells at 5 uM cultured in 8% FBS and measured after 7 days in presence of LPS by crystal violet staining based analysis. The assay is classed as functional. As to conditions: time 7.0 day.
`CCOc1cc(N2CCC(O)CC2)ccc1Nc1ncc2c(n1)N(C)c1ccccc1C(=O)N2C`: the inhibition result is “Active”.

In the next assay the target is von Hippel-Lindau disease tumor suppressor/Mitogen-activated protein kinase 7 (Homo sapiens, UniProt Q13164+P40337). Briefly: PROTAC activity at VHL/ERK5 in human A-375 cells assessed as induction of ERK5 degradation at 100 nM incubated for 24 hrs by western blot analysis.
Sequence of von Hippel-Lindau disease tumor suppressor/Mitogen-activated protein kinase 7 (P40337 whole entry partner): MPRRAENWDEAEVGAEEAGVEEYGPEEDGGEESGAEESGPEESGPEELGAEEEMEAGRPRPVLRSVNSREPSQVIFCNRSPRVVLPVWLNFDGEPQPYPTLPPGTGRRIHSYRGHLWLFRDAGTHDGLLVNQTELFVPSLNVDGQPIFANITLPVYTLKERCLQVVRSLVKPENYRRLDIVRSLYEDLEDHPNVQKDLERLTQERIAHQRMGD
Sequence of von Hippel-Lindau disease tumor suppressor/Mitogen-activated protein kinase 7 (Q13164 2-816 limits assumed): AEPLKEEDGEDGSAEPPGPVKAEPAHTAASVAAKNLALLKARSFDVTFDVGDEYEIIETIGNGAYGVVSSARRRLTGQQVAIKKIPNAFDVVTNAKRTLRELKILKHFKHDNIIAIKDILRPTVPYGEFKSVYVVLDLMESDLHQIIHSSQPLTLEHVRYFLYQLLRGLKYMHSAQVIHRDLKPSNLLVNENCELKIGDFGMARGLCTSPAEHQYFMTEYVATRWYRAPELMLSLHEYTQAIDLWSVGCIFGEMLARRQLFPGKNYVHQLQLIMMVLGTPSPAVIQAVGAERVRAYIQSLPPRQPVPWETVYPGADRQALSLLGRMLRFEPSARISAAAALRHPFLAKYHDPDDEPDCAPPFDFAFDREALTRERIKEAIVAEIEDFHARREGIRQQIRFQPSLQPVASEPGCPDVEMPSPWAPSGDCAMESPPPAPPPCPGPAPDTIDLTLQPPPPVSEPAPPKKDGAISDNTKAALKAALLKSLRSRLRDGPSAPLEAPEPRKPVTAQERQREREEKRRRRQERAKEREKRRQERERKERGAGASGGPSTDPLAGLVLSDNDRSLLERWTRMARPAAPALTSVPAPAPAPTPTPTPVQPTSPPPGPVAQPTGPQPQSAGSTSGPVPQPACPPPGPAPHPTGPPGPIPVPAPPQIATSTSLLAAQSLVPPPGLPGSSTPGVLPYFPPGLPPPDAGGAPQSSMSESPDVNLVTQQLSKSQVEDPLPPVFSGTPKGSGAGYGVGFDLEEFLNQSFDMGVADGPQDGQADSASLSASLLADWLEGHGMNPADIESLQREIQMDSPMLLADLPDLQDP
Conditions: not given
Format: cell-based. (In general: Immunoblotting shows a protein as a band on a membrane.)
For the molecule `COc1cc(N2CCN(CCOCCNc3cccc4c3C(=O)N(C3CCC(=O)NC3=O)C4=O)CC2)ccc1Nc1ncc2c(n1)N(C)c1ccccc1C(=O)N2C` (centres undefined), the result was Active. Same read-out and setting: the same measure for `COc1cc(N2CCN(CCCCCCCCC(=O)N[C@H](C(=O)N3C[C@H](O)C[C@H]3C(=O)N[C@@H](C)c3ccc(-c4scnc4C)cc3)C(C)(C)C)CC2)ccc1Nc1ncc2c(n1)N(C)c1ccccc1C(=O)N2C`: “Active”.

For `COc1cc(N2CCN(CCCCC(=O)N[C@H](C(=O)N3C[C@H](O)C[C@H]3C(=O)N[C@@H](C)c3ccc(-c4scnc4C)cc3)C(C)(C)C)CC2)ccc1Nc1ncc2c(n1)N(C)c1ccccc1C(=O)N2C`, the result was Active. Turning to `COc1cc(N2CCN(CCCCCCCC(=O)N[C@H](C(=O)N3C[C@H](O)C[C@H]3C(=O)N[C@@H](C)c3ccc(-c4scnc4C)cc3)C(C)(C)C)CC2)ccc1Nc1ncc2c(n1)N(C)c1ccccc1C(=O)N2C`, the outcome was Active. The same measure, in the same setting: the same measure for `COc1cc(NC(=O)NCCOCCNc2cccc3c2C(=O)N(C2CCC(=O)NC2=O)C3=O)ccc1Nc1ncc2c(n1)N(C)c1ccccc1C(=O)N2C` (centres undefined): “inactive”.

With `COc1cc(NC(=O)NCCCCCNc2cccc3c2C(=O)N(C2CCC(=O)NC2=O)C3=O)ccc1Nc1ncc2c(n1)N(C)c1ccccc1C(=O)N2C` (centres undefined), the result was inactive. `COc1cc(N2CCN(CCCCCC(=O)N[C@H](C(=O)N3C[C@H](O)C[C@H]3C(=O)N[C@@H](C)c3ccc(-c4scnc4C)cc3)C(C)(C)C)CC2)ccc1Nc1ncc2c(n1)N(C)c1ccccc1C(=O)N2C`: the result was Active.

Take `COc1cc(NC(=O)CCCCCn2cc(CCNc3cccc4c3C(=O)N(C3CCC(=O)NC3=O)C4=O)nn2)ccc1Nc1ncc2c(n1)N(C)c1ccccc1C(=O)N2C` (centres undefined): the outcome was inactive. As for `COc1cc(NC(=O)NCCOCCOCCOCCNc2cccc3c2C(=O)N(C2CCC(=O)NC2=O)C3=O)ccc1Nc1ncc2c(n1)N(C)c1ccccc1C(=O)N2C` (centres undefined), the outcome was inactive. Still for that read-out and setting: then `COc1cc(N2CCC(OCCCCCC(=O)N[C@H](C(=O)N3C[C@H](O)C[C@H]3C(=O)N[C@@H](C)c3ccc(-c4scnc4C)cc3)C(C)(C)C)CC2)ccc1Nc1ncc2c(n1)N(C)c1ccccc1C(=O)N2C`, with “Active”. On to `COc1cc(NC(=O)CNc2cccc3c2C(=O)N(C2CCC(=O)NC2=O)C3=O)ccc1Nc1ncc2c(n1)N(C)c1ccccc1C(=O)N2C` (centres undefined), for which the result was inactive. As for `COc1cc(NC(=O)CCCCCCCCCCNc2cccc3c2C(=O)N(C2CCC(=O)NC2=O)C3=O)ccc1Nc1ncc2c(n1)N(C)c1ccccc1C(=O)N2C` (centres undefined), the result was inactive. For `COc1cc(N2CCN(CCOCCOCCCN[C@H](C(=O)N3C[C@H](O)C[C@H]3C(=O)N[C@@H](C)c3ccc(-c4scnc4C)cc3)C(C)(C)C)CC2)ccc1Nc1ncc2c(n1)N(C)c1ccccc1C(=O)N2C`, the result was Active. Consider `COc1cc(N2CCN(CCCCCCCCCCC(=O)N[C@H](C(=O)N3C[C@H](O)C[C@H]3C(=O)N[C@@H](C)c3ccc(-c4scnc4C)cc3)C(C)(C)C)CC2)ccc1Nc1ncc2c(n1)N(C)c1ccccc1C(=O)N2C`, for which the outcome was Active. Same read-out and setting: the same measure for `COc1cc(N2CCN(CCOCC#Cc3cccc4c3CN(C3CCC(=O)NC3=O)C4=O)CC2)ccc1Nc1ncc2c(n1)N(C)c1ccccc1C(=O)N2C` (centres undefined): “Active”; for `COc1cc(C(=O)N2CCN(C(=O)CCCCC#Cc3cccc4c3CN(C3CCC(=O)NC3=O)C4=O)CC2)ccc1Nc1ncc2c(n1)N(C)c1ccccc1C(=O)N2C` (centres undefined): “inactive”.

On to `COc1cc(N2CCN(CCCCCCCCCC(=O)N[C@H](C(=O)N3C[C@H](O)C[C@H]3C(=O)N[C@@H](C)c3ccc(-c4scnc4C)cc3)C(C)(C)C)CC2)ccc1Nc1ncc2c(n1)N(C)c1ccccc1C(=O)N2C`, for which the result was Active. The same measure, in the same setting: then `COc1cc(N2CCN(C(=O)CCCCC#Cc3cccc4c3CN(C3CCC(=O)NC3=O)C4=O)CC2)ccc1Nc1ncc2c(n1)N(C)c1ccccc1C(=O)N2C` (centres undefined), with “inactive”. Same read-out and setting: then `COc1cc(NC(=O)NCCCNc2cccc3c2C(=O)N(C2CCC(=O)NC2=O)C3=O)ccc1Nc1ncc2c(n1)N(C)c1ccccc1C(=O)N2C` (centres undefined), with “inactive”.

On to `COc1cc(NC(=O)NCCOCCOCCNc2cccc3c2C(=O)N(C2CCC(=O)NC2=O)C3=O)ccc1Nc1ncc2c(n1)N(C)c1ccccc1C(=O)N2C` (centres undefined), for which the result was inactive. Consider `COc1cc(NC(=O)NCCCCCCNc2cccc3c2C(=O)N(C2CCC(=O)NC2=O)C3=O)ccc1Nc1ncc2c(n1)N(C)c1ccccc1C(=O)N2C` (centres undefined), for which the outcome was inactive. On to `COc1cc(NC(=O)NCCCCNc2cccc3c2C(=O)N(C2CCC(=O)NC2=O)C3=O)ccc1Nc1ncc2c(n1)N(C)c1ccccc1C(=O)N2C` (centres undefined), for which the result was inactive. On the same count and under the same terms, then `COc1cc(C(=O)N2CCN(CCCCCC(=O)N[C@H](C(=O)N3C[C@H](O)C[C@H]3C(=O)N[C@@H](C)c3ccc(-c4scnc4C)cc3)C(C)(C)C)CC2)ccc1Nc1ncc2c(n1)N(C)c1ccccc1C(=O)N2C`, with “Active”.

The target of the next assay is Mitogen-activated protein kinase 7 (Homo sapiens, UniProt Q13164). As to the kind of experiment: Inhibition of ERK5 (unknown origin) by ADP-Glo kinase assay.
Sequence of Mitogen-activated protein kinase 7 (Q13164 whole entry): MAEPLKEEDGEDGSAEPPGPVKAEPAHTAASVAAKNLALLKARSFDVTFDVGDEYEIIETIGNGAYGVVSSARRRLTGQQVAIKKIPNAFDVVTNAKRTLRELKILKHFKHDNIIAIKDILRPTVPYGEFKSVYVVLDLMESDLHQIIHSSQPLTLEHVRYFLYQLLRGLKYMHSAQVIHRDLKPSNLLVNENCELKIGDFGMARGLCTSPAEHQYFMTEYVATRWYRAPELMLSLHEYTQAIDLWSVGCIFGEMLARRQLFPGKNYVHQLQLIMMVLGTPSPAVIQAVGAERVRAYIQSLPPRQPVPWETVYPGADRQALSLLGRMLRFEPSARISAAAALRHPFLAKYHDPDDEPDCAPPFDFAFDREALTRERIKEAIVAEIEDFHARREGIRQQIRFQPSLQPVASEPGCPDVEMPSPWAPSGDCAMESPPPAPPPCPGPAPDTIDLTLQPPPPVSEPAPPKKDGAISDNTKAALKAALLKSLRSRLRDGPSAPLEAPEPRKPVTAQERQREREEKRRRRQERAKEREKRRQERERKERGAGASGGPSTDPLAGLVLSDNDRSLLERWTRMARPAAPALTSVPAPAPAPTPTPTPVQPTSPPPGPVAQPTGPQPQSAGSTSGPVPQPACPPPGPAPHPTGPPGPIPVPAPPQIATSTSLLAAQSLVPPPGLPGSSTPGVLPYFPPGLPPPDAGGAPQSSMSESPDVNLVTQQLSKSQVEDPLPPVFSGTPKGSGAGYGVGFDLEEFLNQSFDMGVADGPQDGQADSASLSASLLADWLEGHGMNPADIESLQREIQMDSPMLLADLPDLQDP
Conditions: not given
For orientation: ADP-Glo first removes unused ATP, then detects ADP through luciferase.
In the case of `COc1cc(N2CCN(CCCCCCCC(=O)N[C@H](C(=O)N3C[C@H](O)C[C@H]3C(=O)N[C@@H](C)c3ccc(-c4scnc4C)cc3)C(C)(C)C)CC2)ccc1Nc1ncc2c(n1)N(C)c1ccccc1C(=O)N2C`, the IC50 came out at 67.1 nM.

Regarding `CCOC(=O)CCCCCCN1CCN(c2ccc(Nc3ncc4c(n3)N(C)c3ccccc3C(=O)N4C)c(OC)c2)CC1`, the IC50 was found to be 27.1 nM.

Regarding `COc1cc(N2CCNCC2)ccc1Nc1ncc2c(n1)N(C)c1ccccc1C(=O)N2C`, the concentration for half-maximal inhibition (IC50) was determined as 10.1 nM.

Tested on in a further assay: not listed separately
As to the kind of experiment: Inhibition of M2 macrophage development in PMA-differentiated human THP-1 cells assessed as CD206 surface expression at 5 uM incubated for 48 hrs by flow cytometry (reference value: 53.4%). The assay is classed as functional. The arrangement: scale not given: the % may be the effect or the level left.
Conditions: not given
On the technique in general: In flow cytometry, cells or beads pass a laser one at a time.
For `CCOc1cc(N2CCC(O)CC2)ccc1Nc1ncc2c(n1)N(C)c1ccccc1C(=O)N2C`, the Activity was determined as 44.5%.

The values are drawn from ChEMBL document CHEMBL5365526 (J Med Chem, 2023).
